Assay results published in ChEMBL document CHEMBL1134848, “Synthesis and biological evaluation of a spongistatin AB-spiroketal analogue” (2002).

Assays:
Format in all cases: functional
BXPC-3 = assay: In vitro growth inhibitory activity on human Pancreas-a (BXPC-3) cell line
DU-145 = assay: In vitro growth inhibitory activity on human Prostate (DU-145) cell line
KM-20L2 = assay: In vitro growth inhibitory activity on human Colon (KM20L2) cell line
MCF7 = assay: In vitro growth inhibitory activity on human Breast adn (MCF-7) cell line
NCI-H460 = assay: In vitro growth inhibitory activity on human Lung-NSC (NCI-H460) cell line
SF-268 = assay: In vitro growth inhibitory activity on human CNS Gliobl (SF268) cell line

Measured: GI50

OCC1CCCC2(CCCC(CO)O2)O1 (single isomer, unassigned; (-))
> 10 µg/mL: all assays above

CC(=O)OC1CC(CCO)OC2(C1)CC(C)(O)CC(CO)O2 (single isomer, unassigned; (-))
> 10 µg/mL: all assays above
